What was measured:
[1] = system: Chromobacterium violaceum
[2] = system: LuxN F163A/R245L/S184N/G271D; settings: quadruple mutant LuxN F163A/R245L/S184N/G271D; EC50 could not be determined
LuxN P226T = settings: even at 500 μM AI-1, EC50 could not be assigned
LuxN F202A = settings: even at 500 μM AI-1, EC50 could not be assigned
LuxN S205P = settings: even at 500 μM AI-1, EC50 could not be assigned
LuxN E233A = settings: even at 500 μM AI-1, EC50 could not be assigned

N[C@H]1CCOC1=O [HSL]
Median survival of C. elegans [1]: 4 days

CC(O)CC(=O)NC1CCOC1=O (stereo not drawn) [AI-1, 3-hydroxybutanoyl homoserine lactone]
Light production phenotype with AI-1 [2]: constitutively bright at all AI-1 concentrations
Light production phenotype with AI-1 (LuxN P226T): dark phenotype
Light production phenotype with AI-1 (LuxN F202A): dark phenotype
Light production phenotype with AI-1 (LuxN S205P): dark phenotype
Light production phenotype with AI-1 (LuxN E233A): dark phenotype

Reference: patent US9415040B2 (priority 2008, dated 2016)
